Assay results taken from US20040162345A1, “Compounds with NEP/MP-inhibitory activity and uses thereof” (Solvay Pharmaceuticals GmbH, priority 2001, published 2004).
Entries after “also recorded” stand apart in the source; their conditions may differ. Like-named read-outs stand apart in the source and are kept apart here. Marks after values point to notes of the source that are not given here. No end group written: not given here.

Assays:
[1] = target: T1, His6-tagged IGS5 ectodomain (Homo sapiens, UniProt Q495T6); assay: IGS5 enzyme inhibition assay (fluorescence-quenched big-ET-1 analog, HPLC); assay type: biochemical; settings: for IC50: conversion of labeled fluorescent big-ET-1 analog
T1 construct: Enzyme: IGS-5 (sol hu)(his)6; or: His6-tagged IGS5 ectodomain;; made in house; host or cells: Sf9 insect cells, recombinant baculovirus IGBV73, purified from culture supernatant
T1 sequence (Q495T6 49-779 limits assumed): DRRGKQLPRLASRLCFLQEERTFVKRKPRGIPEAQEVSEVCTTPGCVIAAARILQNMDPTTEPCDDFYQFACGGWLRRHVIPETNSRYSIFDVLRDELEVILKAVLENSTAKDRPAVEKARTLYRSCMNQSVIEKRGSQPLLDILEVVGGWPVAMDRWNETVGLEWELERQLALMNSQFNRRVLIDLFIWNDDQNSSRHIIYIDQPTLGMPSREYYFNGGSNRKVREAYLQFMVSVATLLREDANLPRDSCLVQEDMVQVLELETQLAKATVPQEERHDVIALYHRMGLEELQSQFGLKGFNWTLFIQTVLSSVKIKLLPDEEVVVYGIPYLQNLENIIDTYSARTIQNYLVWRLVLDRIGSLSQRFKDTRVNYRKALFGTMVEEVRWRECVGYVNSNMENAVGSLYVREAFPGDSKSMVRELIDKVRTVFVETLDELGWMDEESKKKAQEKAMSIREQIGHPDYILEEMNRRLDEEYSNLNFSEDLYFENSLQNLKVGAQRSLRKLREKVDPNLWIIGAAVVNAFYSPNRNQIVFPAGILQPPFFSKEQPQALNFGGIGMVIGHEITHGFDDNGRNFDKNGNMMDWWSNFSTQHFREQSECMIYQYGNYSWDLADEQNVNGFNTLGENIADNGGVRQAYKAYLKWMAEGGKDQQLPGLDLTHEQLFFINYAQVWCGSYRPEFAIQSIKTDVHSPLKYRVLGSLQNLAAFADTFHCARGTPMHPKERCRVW
Experimental: (§1) The enzymatic activity of IGS5 polypeptides of the invention was tested with regard to the metabolism of biologically active peptides. In particular it was tested whether these IGS5 polypeptides may act on a variety of vasoactive peptides known in the state of the art e.g. such like atrial natriuretic peptide (ANP), bradykinin, big-endothelin (big-ET-1), endothelin (ET-1), substance P and angiotensin-1. In the context of the present invention in particular it was tested whether the IGS5 ectodomain, which is a novel human metalloprotease, hydrolyzes said vasoactive peptides. For comparison the assay was also performed for a known member of the metalloprotease family which was described earlier as soluble secreted endopeptidase (SEP) by Emoto et al. (J. Biol. Chem., Vol. 274 (1999): pp. 32469-32477). Furthermore, it was tested whether the activity of IGS5 to convert a big-ET-1 analog (the so-called 17 aa big-ET-1) may be inhibited by reference compounds that are used to determine the inhibition properties with regard to enzymes having ECE and/or NEP-characteristics.
Enzyme: IGS-5 (sol hu)(his)6; or: His6-tagged IGS5 ectodomain;
stock solution: 53 μg/ml in 20 mM HEPES pH 7.2, 5% glycerol, 0.005% Tween20, 100 mM NaCl, purity >99%; storage at 4° C.
working solution: stock solution diluted with assay buffer to 10 μg/ml.
Substrate: Mca-Asp-Ile-Ala-Trp-Phe-Dpa-[…]COOH;
Fluorescence-quenched big-ET-1 analog;
Assay buffer: 100 mM Tris pH 7.0, 250 mM NaCl.
All test compounds were dissolved in DMSO at 10 mM and were further diluted with assay buffer.
A quantity of 70 μl of the assay buffer, of 10 μl enzyme working solution and of 10 μl test compound solution were mixed in an Eppendorf vial and preincubated at 37° C. for 15 minutes. Then, 10 μl substrate stock solution was added and the reaction mixture was incubated at 37° C. for 60 minutes to allow for enzymatic hydrolysis. Subsequently the enzymatic reaction was terminated by heating at 95° C. for 5 minutes. After centrifugation (Heraeus Biofuge B, 3 min) the supernatant was subjected to HPLC analysis.
In order to separate the remaining substrate from the cleavage products reversed phase HPLC technique was used with a CC 125/4 Nucleosil 300/5 C18 RP column and a CC 8/4 Nucleosil 100/5 C18 precolumn (commercially available from Macherey-Nagel, Düren, Germany). Thus, 60 μl of the reaction samples obtained in Example 7b were injected into the HPLC, and the column was eluted at a flow rate of 1 ml/min by applying the following gradient and solutions: […]
The increasing fluorescence signal of the HPLC-peak of the peptide with the unquenched Mca-fluorophor after hydrolysis was taken as the basis for any calculation.
This signal was compared for the samples with and without inhibitor and % inhibition was calculated on basis of the respective peak areas.
% inhib=100*(1−Ainhib/Acontrol)
All samples were run in duplicate and mean values were used.
(§2) Furthermore, the potency of metalloprotease inhibitor compounds and reference compounds to suppress the conversion of big-ET to ET-1 was examined as described in this example 7, using a labeled fluorescent big-ET-1 analog. The procedures applied in the enzyme assays are described above in the examples 4 with regard to IGS5, in example 5 with regard to NEP, and in example 6 with regard to ECE.

[2] = target: T2, SEP (soluble secreted endopeptidase) (Mus musculus, UniProt Q9JLI3); settings: 10 μg SEP; 0.5 μM substrate; 12 h, 37° C.; cited from earlier work
T2 sequence (Q9JLI3 63-765 limits assumed): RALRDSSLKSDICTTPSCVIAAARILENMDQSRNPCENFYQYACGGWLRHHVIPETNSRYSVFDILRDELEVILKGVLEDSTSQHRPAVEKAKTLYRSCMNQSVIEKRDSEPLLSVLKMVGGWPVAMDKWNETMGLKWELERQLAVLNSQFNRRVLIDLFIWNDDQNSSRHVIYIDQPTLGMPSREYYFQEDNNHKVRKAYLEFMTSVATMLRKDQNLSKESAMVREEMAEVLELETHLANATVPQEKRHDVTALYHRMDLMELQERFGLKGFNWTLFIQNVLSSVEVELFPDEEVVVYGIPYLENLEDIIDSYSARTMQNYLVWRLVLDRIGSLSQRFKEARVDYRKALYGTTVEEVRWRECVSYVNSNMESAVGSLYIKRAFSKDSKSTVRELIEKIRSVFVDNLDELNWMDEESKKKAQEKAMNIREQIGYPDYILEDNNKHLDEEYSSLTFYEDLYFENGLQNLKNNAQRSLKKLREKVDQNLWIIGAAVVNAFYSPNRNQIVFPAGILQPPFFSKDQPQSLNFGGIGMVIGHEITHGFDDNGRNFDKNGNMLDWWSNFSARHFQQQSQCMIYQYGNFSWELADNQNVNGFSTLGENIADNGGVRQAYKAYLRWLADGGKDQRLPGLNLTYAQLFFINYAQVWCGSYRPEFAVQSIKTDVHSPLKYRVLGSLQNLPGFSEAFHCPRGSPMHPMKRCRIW

IGS5 polypeptide = target: T3, IGS5 polypeptide (Homo sapiens, UniProt Q495T6); assay: Hydrolysis of vasoactive peptides by IGS5 polypeptides; assay type: biochemical; settings: 0.5 μM substrate, 2 h, 37° C.
T3 construct: Enzyme: IGS-5 (sol hu)(his)6; or: His6-tagged IGS5 ectodomain;; made in house; host or cells: Sf9 insect cells, recombinant baculovirus IGBV73, purified from culture supernatant
T3 sequence (Q495T6 49-779 limits assumed): T1 sequence (Q495T6 49-779 limits assumed)
Experimental: as §1

[3] = target: Neutral endopeptidase (E.C. 3.4.24.11) (Sus scrofa, UniProt A0A4X1SQE6); assay: NEP enzyme inhibition assay (methionin-enkephalin substrate, HPLC); assay type: biochemical, pig
Experimental: Neutral endopeptidase (E.C. 3.4.24.11) was prepared from pig kidney cortex according to the method of Gee et al. (Biochem J 1985 May 15;228(1):119-26) and purified as reported by Relton et al. (Biochem J 1983 Dec. 1;215(3):519-23). For the enzyme inhibition assay 10 ng of the purified enzyme, 20 μM substrate (methionin-enkephalin) and various inhibitor concentrations were used. The assay buffer was 50 mM Tris-(hydroxymethyl)-aminomethan/HCl pH 7.4, the total assay volume was 100 μl. After a preincubation period of 5 min of enzyme and inhibitor, the substrate was added and subsequently a second incubation phase for enzyme induced substrate hydrolysis at 37° C. for 30 min was initiated. The enzymatic reaction was stopped by heating at 95° C. for 5 min. After centrifugation the supernatant was subjected to HPLC. The products of enzymatic substrate hydrolysis were separated from the native substrate by HPLC technique and the inhibitor potency calculated by comparing the peak areas of the products with the peak area of native substrate for both, the samples with and without inhibitor (control). Blanks without enzyme, controls without inhibitor, samples with inhibitor solvent instead of the inhibitor and samples with a standard inhibitor were added to each assay run.
as §2

[4] = tested on: patients with congestive heart failure; assay: Open, baseline controlled pilot trial in patients with congestive heart failure; assay type: in vivo, human; settings: following compound Ia-2 administration; p<0.001
Experimental: To proof the concept of clinical efficacy and safety of compound Ia-2 in man, 6 clinical trials were conducted in healthy volunteers and 2 proof of concept trials were conducted in patients: One randomized, placebo-controlled double-blind trial in patients with hypertension (N=191) and one open, baseline controlled pilot trial in patients with congestive heart failure (N=29). […] In the Intent-to-treat patient population (ITT), office diastolic blood pressure versus placebo decreased by −6.9 mmHg (last value under treatment; p<0.001) and office systolic blood pressure versus placebo decreased by −9.2 mmHg (last value under treatment; p=0.003) at the highest dose investigated (200 mg bid).

Chain of Neutral endopeptidase (E.C. 3.4.24.11) (A0A4X1SQE6 entry or part of it): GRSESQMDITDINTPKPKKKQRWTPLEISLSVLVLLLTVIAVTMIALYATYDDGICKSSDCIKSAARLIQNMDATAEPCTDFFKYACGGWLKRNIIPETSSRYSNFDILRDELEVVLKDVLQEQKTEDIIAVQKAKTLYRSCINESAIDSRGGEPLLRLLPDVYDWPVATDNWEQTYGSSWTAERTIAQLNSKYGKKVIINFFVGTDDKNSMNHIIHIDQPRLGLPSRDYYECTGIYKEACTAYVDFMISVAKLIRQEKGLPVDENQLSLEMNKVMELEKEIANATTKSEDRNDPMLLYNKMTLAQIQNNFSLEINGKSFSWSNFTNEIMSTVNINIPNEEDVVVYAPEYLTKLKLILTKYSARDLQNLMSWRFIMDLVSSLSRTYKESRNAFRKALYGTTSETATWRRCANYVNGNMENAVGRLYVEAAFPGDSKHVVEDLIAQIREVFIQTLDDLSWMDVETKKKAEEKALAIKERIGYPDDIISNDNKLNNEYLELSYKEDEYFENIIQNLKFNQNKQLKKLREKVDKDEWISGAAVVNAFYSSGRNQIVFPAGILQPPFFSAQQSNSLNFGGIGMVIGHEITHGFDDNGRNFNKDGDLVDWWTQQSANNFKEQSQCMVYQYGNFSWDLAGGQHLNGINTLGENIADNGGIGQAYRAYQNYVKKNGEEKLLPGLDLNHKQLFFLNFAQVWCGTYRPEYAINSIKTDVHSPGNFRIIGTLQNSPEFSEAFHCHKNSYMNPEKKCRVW

Row | Molecule | % Hydrolysis by SEP (Emoto et al.) [2] [%] | % Hydrolysis by IGS5 Polypeptide (IGS5 polypeptide; 100 μg IGS5 polypeptide) | other results
1 | Cc1nn(-c2ccccc2)c(NC(=O)NS(=O)(=O)c2ccc(Cl)cc2)c1C#N.[Na] | – | – | inhibition of IGS5 activity (in words) ([1]; monosodium salt): no inhibition of IGS5; also recorded: do not affect the activity of IGS5
2 | CC[C@H](C)[C@@H]1NC(=O)[C@H](CCCNC(=N)N)NC(=O)[C@H](CC(=O)O)NC(=O)[C@H](CCSC)NC(=O)[C@H](CCCNC(=N)N)NC(=O)CNC(=O)CNC(=O)[C@H](Cc2ccccc2)NC(=O)[C@@H](NC(=O)[C@H](CO)NC(=O)[C@H](CO)NC(=O)[C@H](CCCNC(=N)N)NC(=O)[C@H](CCCNC(=N)N)NC(=O)[C@H](CC(C)C)NC(=O)[C@@H](N)CO)CSSC[C@@H](C(=O)N[C@@H](CC(N)=O)C(=O)N[C@@H](CO)C(=O)N[C@@H](Cc2ccccc2)C(=O)N[C@@H](CCCNC(=N)N)C(=O)N[C@@H](Cc2ccc(O)cc2)C(=O)O)NC(=O)CNC(=O)[C@H](CC(C)C)NC(=O)CNC(=O)[C@H](CO)NC(=O)[C@H](CCC(N)=O)NC(=O)[C@H](C)NC(=O)CNC1=O [ANP] | >95 | 5% | % Hydrolysis by IGS5 Polypeptide (IGS5 polypeptide; 500 μg IGS5 polypeptide): 80%
3 | CC[C@H](C)[C@H](NC(=O)[C@H](CC(=O)O)NC(=O)[C@H](CC(C)C)NC(=O)[C@H](Cc1c[nH]cn1)NC(=O)[C@@H]1CSSC[C@H](N)C(=O)N[C@@H](CO)C(=O)N[C@H]2CSSC[C@H](NC(=O)[C@H](CCC(=O)O)NC(=O)[C@H](CCCCN)NC(=O)[C@H](CC(=O)O)NC(=O)[C@H](CCSC)NC(=O)[C@H](CC(C)C)NC(=O)[C@H](CO)NC(=O)[C@H](CO)NC2=O)C(=O)N[C@@H](C(C)C)C(=O)N[C@@H](Cc2ccc(O)cc2)C(=O)N[C@@H](Cc2ccccc2)C(=O)N1)C(=O)N[C@H](C(=O)N[C@@H](Cc1c[nH]c2ccccc12)C(=O)O)[C@@H](C)CC [ET-1] | 92 | <30% | –
4 | CC(C)C[C@H](NP(=O)(O)O[C@@H]1O[C@@H](C)[C@H](O)[C@@H](O)[C@H]1O)C(=O)N[C@@H](Cc1c[nH]c2ccccc12)C(=O)O [Phosphoramidon] | – | – | IC50 [3]: 2 nM; inhibition of IGS5 activity (in words) [1]: inhibits IGS5 with high potency; IC50 [1]: 18 nM
5 | O=C(O)CN1C(=O)[C@@H](NC(=O)C2(C[C@@H](CCc3ccccc3)C(=O)O)CCCC2)CCc2ccccc21 [compound Ia-1, (3S,2′R)-3-{1-[2′-carboxy-4′-phenylbutyl]-cyclopentane-1-carbonylamino}-2,3,4,5-tetrahydro-2-oxo-1H-1-benzazepine-1-acetic acid] | – | – | correlation between log plasma concentrations of compound Ia-1 and plasma levels of big-ET [4]: significant positive correlation
6 | Cc1nn(-c2ccccc2)c(NC(=O)NS(=O)(=O)c2ccc(Cl)cc2)c1C#N.[Na] [monosodium salt] | – | – | IC50 ([3]; 20 μM methionin-enkephalin, read-out: NEP IC50): > 1000 nM; IC50 [1]: > 10000 nM
7 | Angiotensin 1: vasoactive peptide tested as substrate (DRVYIHPFHL; Angiotensin-1; UniProt P01019 25-34, looked up) | >95 | 15*** % | –
8 | Mca-Asp-Ile-Ala-Trp-Phe-Dpa-Thr-Pro-Glu-His-Val-Val-Pro-Tyr-Gly-Leu-Gly-COOH [17 aa big-ET-1] | – | 41% | –
9 | RPPGFSPFR [Bradykinin] | – | 100% | % Hydrolysis by IGS5 Polypeptide (IGS5 polypeptide; 10 μg IGS5 polypeptide): 62%
10 | Substance P: vasoactive peptide tested as substrate | >95 | 100% | –
11 | tert-Butyl (3S)-3-(1-benzylethylphosphonomethyl-cyclopentane-1-carbonylamino)-2,3,4,5-tetrahydro-2-oxo-1H-1-benzazepine-1-acetate [compound Ib-8] | – | – | IC50 [1]: 2.9 nM
